Measured values published in US9907783B2, “Methods of treating skin conditions using cyclolignan compounds” (m. Alphabet 2, L.L.C., priority 2013, dated 2018).

Tested on: actinic keratoses
Assay: Randomized, blinded patient study of topical picropodophyllin solution for actinic keratoses (lesion count in treatment area)
Format: in vivo, patients
Settings: topical twice daily for 1 week
Protocol: To date, 56 patients have been studied to determine the efficacy of picropodophyllin in treating actinic keratoses. The patients were randomized into four groups, and the patients in each group were treated with a solution containing either 0.5%, 1.25%, or 2.0% picropodophyllin (w/v) in propylene glycol, or a placebo constituting only the vehicle propylene glycol. The picropodophyllin solution was prepared in 100% propylene glycol solution. The solutions were prepared aseptically following GMP protocols. The affected areas of the body variously included the scalp, face, arms, and legs. Without knowing which one of the four solutions they were applying, the subjects self-applied one of the solutions to the skin. After initial application, the subjects gently massaged the solutions into their skin. This was done twice daily for 1 week. Lesions (actinic keratosis) were palpated and visualized by a trained lesion counter who is a board certified dermatologist. The same investigator evaluated each subject at each visit for consistency. The subjects were evaluated at baseline, day 3, day 7, day 14, day 28, day 56 and day 90. Within the treatment area, the number of lesions were counted, regardless of their size. The change in the number of lesions (% decline from baseline) within the treatment area was calculated and the results are shown in the table below: […]

COc1cc([C@@H]2c3cc4c(cc3[C@H](O)[C@H]3COC(=O)[C@@H]23)OCO4)cc(OC)c1OC [PPP, picropodophyllin]
% Decline from Baseline (number of lesions in treatment area) (0.50% PPP w/v in propylene glycol, 28 days): −56^AB % | % Decline from Baseline (number of lesions in treatment area) (0.50% PPP w/v in propylene glycol, 56 days): −82^AB % | % Decline from Baseline (number of lesions in treatment area) (0.50% PPP w/v in propylene glycol, 90 days): −90^AB % | % Decline from Baseline (number of lesions in treatment area) (1.25% PPP w/v in propylene glycol, 28 days): −53^AB % | % Decline from Baseline (number of lesions in treatment area) (1.25% PPP w/v in propylene glycol, 56 days): −73^AB % | % Decline from Baseline (number of lesions in treatment area) (1.25% PPP w/v in propylene glycol, 90 days): −65^AB % | % Decline from Baseline (number of lesions in treatment area) (2.00% PPP w/v in propylene glycol, 28 days): −17% | % Decline from Baseline (number of lesions in treatment area) (2.00% PPP w/v in propylene glycol, 56 days): −55^AB % | % Decline from Baseline (number of lesions in treatment area) (2.00% PPP w/v in propylene glycol, 90 days): −84^AB %
